# Results published in EP4778522A1, “USE OF PYRROLOPYRIMIDINE COMPOUND AND COMPOSITION THEREOF” (Guangzhou Joyo Pharmatech Co., Ltd., priority 2023, dated 2025).
# Several values for one entry are separate records, joined by “and”; a condition that tells them apart may be missing. Equal values may be shown once. Marks after values point to notes of the source that are not given here.
# What was measured:
# [1] = test system: FITC-induced mouse atopic dermatitis model; test: FITC-induced mouse atopic dermatitis model: histopathological scoring of ears; format: in vivo, Balb/c mice; conditions: pathological score (0-4), right ear, day 13, 20 mg/dose topical twice a day
# Description: On day 13, all the experimental animals were euthanized by CO2 and cervical dislocation, and then the right ears were collected and fixed in 10% formalin for histopathological analysis.
# After the ear tissues were embedded with paraffin, each ear tissue was sliced into 3-5 µm sections. After HE staining, the sections were subjected to routine histopathological evaluation and ear tissue thickness measurement. Table 4 Histopathological scoring criteria
# [2] = test system: FITC-induced mouse atopic dermatitis model; test: FITC-induced mouse atopic dermatitis model: change in ear thickness; format: in vivo, Balb/c mice; conditions: 20 mg/dose topical twice a day; for Ear thickness Day 5 / Ear thickness Day 6 / Ear thickness Day 12 / Ear thickness Day 13 / ΔEar thickness Day 6-Day 5 / ΔEar thickness Day 13-Day 5: right ear; for Inhibitory rate% (Day 13): Δ ear thickness vs model group
# Description: • 1) Animals: female Balb/c mice, specific pathogen-free (SPF), aged 6-7 weeks at grouping, with 10 mice per group. The animals were provided by Shanghai Jihui Laboratory Animal Care Co., Ltd. • 2) Reagents, positive drugs and test drugs
# FITC induction method: experimental animals were subjected to examination in an adaptation period and weight screening after examined to be qualified. The animals were randomly divided into 6 experimental groups according to the weight, including a normal group, a model group, a clobetasol propionate ointment group, a 0.5% Compound I group, a 1% Compound I group and a 2% Compound I group, with 10 mice in each group. On day 0 and day 1, after all the experimental animals were administered for 2 hours, the animals were anesthetized with zoletil (25 mg/kg) and xylazine (5 mg/kg), and then subjected to sensitization operation at the abdomen (a sensitized part). The abdominal part of the experimental animal at about 3×4 cm was depilated before sensitization, and then 0.5% FITC (dissolved in dibutyl phthalate/acetone solution) was applied to the alopecic areas of the abdomens of the experimental animals in model group for sensitization. An equal volume of dibutyl phthalate/acetone was given to the alopecic areas of the abdomens of the experimental animals in the normal-blank gel group.
# On day 5 and day 12, all the experimental animals were anesthetized with 1-4% isoflurane (all subsequent measurements on ear thickness were performed under anesthesia with isoflurane), and the thickness of the right-side ear margins of the experimental animals was measured as a baseline. On day 5 and day 12, 0.5% FITC was applied to both the inner and outer sides of the right ears of the experimental animals in model group for challenge treatment. An equal volume of dibutyl phthalate/acetone solution was given to the experimental animals in the normal-blank gel group.
# On day 6 and day 13, 24 hours after each FITC challenge, the thickness of the right-side ear margins of all the experimental animals was measured. Ear swelling response was determined by the change in the ear thickness before and after FITC challenge measured with a digital display thickness gauge, the measurement positions were basically kept constant, and the mean change in the ear thickness (ΔT±S.E.M.) was recorded for each group.
# [3] = test system: monobenzone-induced mouse vitiligo model; test: Monobenzone-induced mouse vitiligo model: skin pathological analysis of melanin-containing hair follicles; format: in vivo, C57BL/6 mice; conditions: for Number of melanin-containing hair follicles / Proportion of melanin-containing hair follicles (%): 30 mg topical twice a day for 50 days
# Description: The mice were euthanized within 2-4 hours after the last administration, and approximately 1 cm^2 of the skin in the center of the depilated part of the mice was taken and fixed with 4% paraformaldehyde. The animal skin tissues were fixed with 4% paraformaldehyde, dehydrated, embedded with paraffin, sectioned and then subjected to HE staining. The stained sections were photographed by white light panoramic scanning, histopathological changes of the skin tissues and inflammatory cell infiltration were observed, and the number of melanin-containing hair follicles and/or the proportion of the melanin-containing hair follicles in the skin were quantitatively analyzed. The panoramic scanning files were opened by using CaseViewer software, a picture view with the length of about 3.8 mm was randomly selected, and the pictures were saved. The number of all the hair follicles and the number of the melanin-containing hair follicles in the picture were counted respectively by using ipwin32 software. The proportion of the melanin-containing hair follicles was calculated according to the following formula: Proportion of melanin-containing hair follicles = number of melanin-containing follicles/number of all follicles
compound,measurement,setting,value
CN(c1ncnc2[nH]ccc12)[C@@H]1CCc2cc(C#N)nn2C1 [compound I],Enlargement of follicular orifice,[1]; 1% gel,1.50 ± 0.17 and 1.50
same,Enlargement of follicular orifice,[1]; 2% gel,1.30 ± 0.26 and 1.30
same,Ear thickness Day 5,[2]; 0.5% gel,0.17 mm
same,Ear thickness Day 6,[2]; 0.5% gel,0.19 mm
same,Ear thickness Day 12,[2]; 0.5% gel,0.18 mm
same,Ear thickness Day 13,[2]; 0.5% gel,0.19 mm
same,ΔEar thickness Day 6-Day 5,[2]; 0.5% gel,0.0250 mm
same,ΔEar thickness Day 13-Day 5,[2]; 0.5% gel,0.0170 ± 0.0033 mm
same,ΔEar thickness Day 13-Day 5,"[2]; 0.5% gel, listed as compound 1",0.0170 mm
same,Inhibitory rate% (Day 13),[2]; 0.5% gel,82.65%
same,Inhibitory rate% (Day 13),"[2]; 0.5% gel, listed as compound 1",82.65%****
same,Ear thickness Day 5,[2]; 1% gel,0.17 mm
same,Ear thickness Day 6,[2]; 1% gel,0.20 mm
same,Ear thickness Day 12,[2]; 1% gel,0.18 mm
same,Ear thickness Day 13,[2]; 1% gel,0.19 mm
same,ΔEar thickness Day 6-Day 5,[2]; 1% gel,0.0280 mm
same,ΔEar thickness Day 13-Day 5,[2]; 1% gel,0.0250 ± 0.0043 mm and 0.0250 mm
same,Ear thickness Day 5,[2]; 2% gel,0.17 mm
same,Ear thickness Day 6,[2]; 2% gel,0.20 mm
same,Ear thickness Day 12,[2]; 2% gel,0.18 mm
same,Ear thickness Day 13,[2]; 2% gel,0.20 mm
same,ΔEar thickness Day 6-Day 5,[2]; 2% gel,0.0260 mm
same,ΔEar thickness Day 13-Day 5,[2]; 2% gel,0.0250 ± 0.0017 mm and 0.0250 mm
same,therapeutic effect (comparison),"[3]; 1% and 2% compound I gel, reduction of melanin-containing hair follicles in vitiligo model",equivalent to that of 1.5% ruxolitinib and superior to that of 0.03% tacrolimus
same,Number of melanin-containing hair follicles,[3]; 1% compound I gel,30.3
same,Proportion of melanin-containing hair follicles (%),[3]; 1% compound I gel,29.7 ± 9.1% and 29.7%
same,Number of melanin-containing hair follicles,"[3]; 1% compound I gel, listed as Compound I",30.3 ± 14.8
same,"number of the melanin-containing hair follicles, increase compared to the blank preparation group",[3]; 2% compound I gel,37.9%
same,"number of the melanin-containing hair follicles, times that of the model control group",[3]; 2% compound I gel,about 4 times
same,proportion of the melanin-containing hair follicles relative to the model control group,[3]; 2% compound I gel,about twice
same,Number of melanin-containing hair follicles,[3]; 2% compound I gel,26.9*
same,Proportion of melanin-containing hair follicles (%),[3]; 2% compound I gel,30.6 ± 6.2% and 30.6%
same,Number of melanin-containing hair follicles,"[3]; 2% compound I gel, listed as Compound I",26.9 ± 7.4
same,therapeutic effect (comparison),"[3]; 2% compound I gel, proportion of melanin-containing hair follicles",equivalent to that of the ruxolitinib ointment
